Results published in patent publication US5990158A, “Carboxylic acid derivatives, method of manufacturing the same and therapeutic agents containing these compounds” (Kotobuki Seiyaku Co., Ltd., priority 1996, dated 1999).

Experiments:
MMP-9 (gelatinase B) = molecular target: T1, MMP-9 (gelatinase B) (Homo sapiens, UniProt P14780); experiment: MMP-9 (gelatinase B) inhibitory activity, FITC-labeled type IV collagen degradation; format: biochemical; settings: 50% inhibition of collagen type IV degradation; MMP-9 derived from human fibrosarcoma; 42° C., 4 h
T1 construct: purchased Yagai Co. Ltd; host or cells: human fibrosarcoma
T1 sequence (P14780 94-707): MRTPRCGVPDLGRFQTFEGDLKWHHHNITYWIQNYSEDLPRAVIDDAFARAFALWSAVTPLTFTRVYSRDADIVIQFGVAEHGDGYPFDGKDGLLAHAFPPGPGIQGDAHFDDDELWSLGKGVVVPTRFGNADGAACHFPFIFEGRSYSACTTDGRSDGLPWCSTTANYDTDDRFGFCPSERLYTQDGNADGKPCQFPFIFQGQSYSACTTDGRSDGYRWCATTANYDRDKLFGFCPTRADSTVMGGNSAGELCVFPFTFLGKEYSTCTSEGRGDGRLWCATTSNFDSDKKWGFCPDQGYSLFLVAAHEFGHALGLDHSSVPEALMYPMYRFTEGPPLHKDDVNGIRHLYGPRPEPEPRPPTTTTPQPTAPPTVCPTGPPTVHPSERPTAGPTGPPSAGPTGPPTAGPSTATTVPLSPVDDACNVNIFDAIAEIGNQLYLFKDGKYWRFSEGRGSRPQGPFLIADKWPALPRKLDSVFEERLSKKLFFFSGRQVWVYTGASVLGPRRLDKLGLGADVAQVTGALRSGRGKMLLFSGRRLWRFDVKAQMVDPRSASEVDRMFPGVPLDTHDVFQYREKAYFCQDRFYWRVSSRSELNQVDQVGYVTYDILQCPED
Protocol: (§1) Experiment 2: MMP-2 (gelatinase A) and MMP-9 (gelatinase B) inhibitory activities.
(§2) Pro MMP-2 was obtained from culture medium separated from human pro-MMP-2 cDNA tranfected COS-1 cells. It was activated by 1 mM (p-aminophenyl)mercury acetic acid, and MMP-9, derived human fibrosarcome,was purchased from Yagai Co. Ltd. Inhibition of both enzyme activities were estimated by enzyme assay using type IV collagenase activity assay kit (Yagai Co. Ltd., Biswaz, C. et al., J. Cell.Biochem., 28, 39 (1984)). MMP-2 or MMP-9 (0.01 U/ml), test compound (several concentrations), and FITC-labeled type IV collagen (derived bovine placenta, 25 μg) were incubated in 100 μl of 0.05M Tris - HCl buffer (pH 7.5) containing 200 mM NaCl and 5 mM CaCl2 at 42° C. for 4 h. Inhibitory activity of compound was evaluated by same as that of MMP-1 assay. Unchanged type IV collagen was precipitated by centrifugation, and the degradation percent of substrate was calculated by comparison with a fluorescence intensity of heat denatured substrate as 100%. Inhibition of enzyme activity was expressed as an IC50 value which was the concentration of test compound necessary to produce 50% inhibition of collagen type IV degradation by enzyme.

MMP-2 (gelatinase A) = molecular target: T2, MMP-2 (gelatinase A) (Homo sapiens, UniProt P08253); experiment: MMP-2 (gelatinase A) inhibitory activity, FITC-labeled type IV collagen degradation; format: biochemical; settings: 50% inhibition of collagen type IV degradation; activated pro MMP-2 from transfected COS-1 cells; 42° C., 4 h
T2 construct: made in house; host or cells: COS-1 cells transfected with human pro-MMP-2 cDNA (secreted into culture medium)
T2 sequence (P08253 110-660): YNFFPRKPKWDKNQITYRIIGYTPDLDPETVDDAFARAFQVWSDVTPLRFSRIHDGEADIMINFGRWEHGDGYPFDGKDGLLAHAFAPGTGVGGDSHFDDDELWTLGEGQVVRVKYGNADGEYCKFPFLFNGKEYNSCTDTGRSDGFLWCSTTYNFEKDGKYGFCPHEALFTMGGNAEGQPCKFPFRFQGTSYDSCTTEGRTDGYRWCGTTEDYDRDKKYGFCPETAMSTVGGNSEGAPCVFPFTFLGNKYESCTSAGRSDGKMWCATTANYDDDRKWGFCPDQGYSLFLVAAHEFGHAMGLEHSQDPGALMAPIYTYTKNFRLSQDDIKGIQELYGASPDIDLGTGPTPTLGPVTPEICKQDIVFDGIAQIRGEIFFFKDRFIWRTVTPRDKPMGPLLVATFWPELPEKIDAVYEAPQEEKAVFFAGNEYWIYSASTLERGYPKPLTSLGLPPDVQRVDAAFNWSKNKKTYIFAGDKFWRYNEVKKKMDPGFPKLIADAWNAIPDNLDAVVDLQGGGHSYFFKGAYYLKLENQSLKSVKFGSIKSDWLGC
Protocol: as §1, §2

Question: What does the source list for `CNC(=O)[C@H](Cc1ccccc1)NC(=O)[C@@H](CC(=O)NO)CC(C)(C)COC` [Compound 58, N-[(2R)-2-(2'-Hydroxyamino-2'-oxo-ethyl)-4,4-dimethyl-5-methoxy-pentanoyl]-L-phenylalanine N-Methylamide]?
Answer: IC50 (MMP-9 (gelatinase B)): 2200 nM; IC50 (MMP-2 (gelatinase A)): > 10000 nM

Question: How did the IC50 (MMP-9 (gelatinase B)) turn out when `CNC(=O)[C@H](Cc1ccc(OC)cc1)NC(=O)[C@@H](CC(=O)NO)CC(C)(C)COC` [Compound 59, (2S)-2-[(2R)-2-(2'-Hydroxyamino-2'-oxo-ethyl)-4,4-dimethyl-5-methoxy-pentanoyl]amino-3-(4-methoxy)phenylpropanoyl-methylamide] was run?
Answer: 1500 nM

Question: And the IC50 (MMP-2 (gelatinase A))?
Answer: 6800 nM

Question: Which IC50 (MMP-9 (gelatinase B)) does the source give for `CNC(=O)[C@@H](NC(=O)[C@@H](CC(=O)NO)CC(C)(C)COC)C(C)(C)C` [Compound 60, N-[(2R)-2-(2'-Hydroxyamino-2'-oxo-ethyl)-4,4-dimethyl-5-methoxy-pentanoyl]-L-tert-leucine N-Methylamide] here?
Answer: 6800 nM

Question: And the IC50 (MMP-2 (gelatinase A))?
Answer: > 10000 nM

Question: Which IC50 (MMP-9 (gelatinase B)) does the source give for `CNC(=O)[C@H](Cc1ccccc1)NC(=O)[C@H](CCCOc1ccc(OC)cc1)CC(=O)OCc1oc(=O)oc1C` [Compound 61] here?
Answer: 110 nM

Question: What about the IC50 (MMP-2 (gelatinase A)) of the same molecule?
Answer: 1000 nM

Question: For `CCOc1ccc(OCCC[C@H](CC(=O)OCc2oc(=O)oc2C)C(=O)N[C@@H](Cc2ccccc2)C(=O)NC)cc1` [Compound 62], which IC50 (MMP-9 (gelatinase B)) is on record?
Answer: 120 nM

Question: What about the IC50 (MMP-2 (gelatinase A)) of the same molecule?
Answer: 500 nM

Question: How did the IC50 (MMP-9 (gelatinase B)) turn out when `CNC(=O)[C@H](Cc1ccc(OC)cc1)NC(=O)[C@H](CCCOc1ccc(OC)cc1)CC(=O)OCc1oc(=O)oc1C` [Compound 63, (2S)-2-[(2R)-2-(2'-(5-Methyl-2-oxo-1,3-dioxolen-4-yl)-methylene-oxy-2'-oxo-ethyl]-5-[(4-methoxyphenyl)oxy]-pentanoyl]amino-3-(4-methoxy)phenylpropanoylmethylamide] was run?
Answer: 140 nM

Question: What about the IC50 (MMP-2 (gelatinase A)) of the same molecule?
Answer: 1600 nM

Question: What does the source list for `CNC(=O)[C@H](Cc1ccc(OC)cc1)NC(=O)[C@H](CCCCOc1ccc(OC)cc1)CC(=O)OCc1oc(=O)oc1C` [Compound 64, (2S)-2-[(2R)-2-(2'-(5-Methyl-2-oxo-1,3-dioxolen-4-yl)-methylene-oxy-2'-oxo-ethyl]-6-[(4-methoxyphenyl)oxy]-hexanoyl]amino-3-(4-methoxy)phenylpropanoylmethylamide]?
Answer: IC50 (MMP-9 (gelatinase B)): 980 nM; IC50 (MMP-2 (gelatinase A)): 2300 nM
